T1: EPR3 (Lotus japonicus, UniProt D3KU53)
T1 construct: gene LYS3; ectodomain (M1, M2, LysM3, stem), residues 33-232; N-terminal gp67 secretion signal, C-terminal 6xHis tag; secreted from Sf9 insect cells (baculovirus); glycosylated or PNGase F-treated; monomer
T1 sequence (D3KU53 33-232): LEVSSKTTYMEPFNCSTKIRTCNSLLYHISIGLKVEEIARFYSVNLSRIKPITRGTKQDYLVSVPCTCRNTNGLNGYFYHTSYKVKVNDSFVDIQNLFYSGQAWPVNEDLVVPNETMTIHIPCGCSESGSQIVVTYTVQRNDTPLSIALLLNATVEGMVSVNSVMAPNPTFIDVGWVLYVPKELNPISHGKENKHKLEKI

T2: Lotus japonicus exopolysaccharide receptor 3 (EPR3) ectodomain (Lotus japonicus ecotype Gifu, N-linked oligosaccharides (glycosylated))
T2 construct: EPR3 (exopolysaccharide receptor 3), Lotus japonicus ecotype Gifu, ectodomain, residues 33-232; Codon-optimised for insect cells, vector pOET2; also called Lotus EPR3; glycosylated EPR3; source: Sf9 (baculovirus), secreted into the medium, purified (HisTrap excel, HisTrap HP, Superdex 75)
T2 chain: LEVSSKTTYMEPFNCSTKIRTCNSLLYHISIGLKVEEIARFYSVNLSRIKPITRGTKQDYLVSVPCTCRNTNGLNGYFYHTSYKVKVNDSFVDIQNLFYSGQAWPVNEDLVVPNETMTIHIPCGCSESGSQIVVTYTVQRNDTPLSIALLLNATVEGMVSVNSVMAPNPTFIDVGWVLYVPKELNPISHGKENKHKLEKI


Experiments:
EPR3 = target: T1, EPR3; assay: microscale thermophoresis; type: binding; details: labelled EPR3 (Blue NHS, 100 nM); 50 mM K2PO4 pH 7.8, 500 mM NaCl, 0.05% Tween-20; 25 °C; n = 3
[1] = target: T2, Lotus japonicus exopolysaccharide …; assay: SEC; analytic Superdex 75 Increase 3.2/300 column; mobility shift of the complex; details: both partners purified

Molecule	Kd (EPR3) [µM]	binding result [1]
O=C(O)[C@H]1O[C@@H](O[C@H]2[C@H](O)[C@@H](O)[C@@H](O[C@H]3[C@H](O)[C@@H](O)[C@H](OC[C@H]4O[C@@H](OC[C@H]5O[C@@H](O[C@H]6[C@H](O)[C@@H](O)[C@H](O[C@H]7[C@H](O)[C@@H](O)[C@H](O[C@H]8[C@@H](O)[C@@H](CO)OC(O)[C@@H]8O)O[C@@H]7CO)O[C@@H]6CO)[C@H](O)[C@@H](O)[C@@H]5O)[C@H](O)[C@@H](O)[C@@H]4O)O[C@@H]3CO)O[C@@H]2C(=O)O)[C@H](O)[C@@H]1O (some centres unmarked) [deOAc-EPS]	31.3 ± 11.7	
Nb186 (VHH, llama (Lama glama) nanobody selected by phage display against EPR3; Cloned into pET22b(+) for bacterial expression; also called nanobody Nb186; source: E. coli LOBSTR, purified (Ni Sepharose 6 FF, Superdex 75)) VHH: QVQLVESGGGLVQPGGSLRLSCAASGSIFSIDYMGWYRQAPGKERELVAIKTSGGTTHYADSVKGRFTISRDNAKNTVYLQMNSLKPDDTAVYYCNARVYFGDRDYWGQGTQVTVSS		binds

Reference: PMC7392887, “Structural signatures in EPR3 define a unique class of plant carbohydrate receptors” (Nature Communications, 2020)
